Assay results as given in the supplement of paper PMC10307832.

Tests used:
Assay in all cases: relative viability (nuclei count vs DMSO), 5 days (fraction); higher = more cells survive
EHT 1864 + Palbociclib = compound: C1COCCN1CC2=CC(=O)C(=CO2)OCCCCCSC3=C4C=CC(=CC4=NC=C3)C(F)(F)F [EHT 1864] + CC(=O)c1c(C)c2cnc(Nc3ccc(N4CCNCC4)cn3)nc2n(C2CCCC2)c1=O [Palbociclib] (partner 0.5 µM)
In short: (§1)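 The day after seeding in 1536-well plates, lung cancer cell lines were treated by pin tool with a single drug, or with a fixed anchor-drug dose together with five library-drug doses (not always all listed) in √10 steps. After 5 days, a combined fix-and-stain solution (final 0.05% Triton X-100, 1% formaldehyde, 1 ug/ml Hoechst) was added. Nuclei counted on 4× images gave relative viability as treated counts over vehicle counts, reported as the median of duplicate plates.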

EHT 1864 + Phenformin = compound: C1COCCN1CC2=CC(=O)C(=CO2)OCCCCCSC3=C4C=CC(=CC4=NC=C3)C(F)(F)F [EHT 1864] + N=C(N)NC(=N)NCCc1ccccc1 [Phenformin] (partner 250 µM)
In short: as §1

EHT 1864 + Pictilisib = compound: C1COCCN1CC2=CC(=O)C(=CO2)OCCCCCSC3=C4C=CC(=CC4=NC=C3)C(F)(F)F [EHT 1864] + CS(=O)(=O)N1CCN(Cc2cc3nc(-c4cccc5[nH]ncc45)nc(N4CCOCC4)c3s2)CC1 [Pictilisib] (partner 1 µM)
In short: as §1

EHT 1864 + Decitabine = compound: C1COCCN1CC2=CC(=O)C(=CO2)OCCCCCSC3=C4C=CC(=CC4=NC=C3)C(F)(F)F [EHT 1864] + Nc1ncn([C@H]2C[C@H](O)[C@@H](CO)O2)c(=O)n1 [Decitabine] (partner 2 µM)
In short: as §1

Cell Line | relative viability (EHT 1864 + Palbociclib; first compound 0.04 µM) | relative viability (EHT 1864 + Palbociclib; first compound 0.4 µM) | relative viability (EHT 1864 + Palbociclib; first compound 1.265 µM) | relative viability (EHT 1864 + Palbociclib; first compound 4 µM) | relative viability (EHT 1864 + Phenformin; first compound 0.04 µM) | relative viability (EHT 1864 + Phenformin; first compound 0.4 µM) | relative viability (EHT 1864 + Phenformin; first compound 1.265 µM) | relative viability (EHT 1864 + Phenformin; first compound 4 µM) | relative viability (EHT 1864 + Pictilisib; first compound 0.04 µM) | relative viability (EHT 1864 + Pictilisib; first compound 0.1265 µM) | relative viability (EHT 1864 + Pictilisib; first compound 0.4 µM) | relative viability (EHT 1864 + Pictilisib; first compound 1.265 µM) | relative viability (EHT 1864 + Pictilisib; first compound 4 µM) | relative viability (EHT 1864 + Decitabine; first compound 0.04 µM) | relative viability (EHT 1864 + Decitabine; first compound 0.1265 µM) | relative viability (EHT 1864 + Decitabine; first compound 0.4 µM) | relative viability (EHT 1864 + Decitabine; first compound 1.265 µM) | relative viability (EHT 1864 + Decitabine; first compound 4 µM) | relative viability (EHT 1864 + Palbociclib; first compound 0.1265 µM) | relative viability (EHT 1864 + Phenformin; first compound 0.1265 µM)
LK-2 | 0.67 | 0.523 | 0.639 | 0.588 | 0.539 | 0.591 | 0.369 | 0.373 | 0.614 | 0.487 | 0.591 | 0.479 | 0.661 | 0.292 | 0.312 | 0.169 | 0.333 | 0.265 |  | 
NCI-H1993 | 0.693 | 0.682 | 0.664 | 0.741 | 0.537 | 0.488 | 0.534 | 0.508 | 0.88 | 1.04 | 0.788 | 0.866 | 0.894 | 0.552 |  | 0.598 | 0.645 | 0.57 |  | 
NCI-H838 | 0.208 | 0.266 | 0.223 | 0.244 | 0.558 | 0.638 | 0.697 | 0.588 | 0.501 | 0.353 | 0.548 | 0.435 | 0.428 | 0.472 | 0.438 | 0.442 | 0.445 | 0.431 | 0.185 | 0.513
NCI-H1437 | 0.311 | 0.309 | 0.236 | 0.302 | 0.34 | 0.298 | 0.311 | 0.335 | 0.438 | 0.47 | 0.418 | 0.492 | 0.397 | 0.607 | 0.523 | 0.542 | 0.566 | 0.518 | 0.293 | 0.262
NCI-H358 | 0.14 | 0.133 | 0.135 | 0.124 | 0.328 | 0.367 | 0.345 | 0.303 | 0.349 |  | 0.342 | 0.315 | 0.3 | 0.238 | 0.241 | 0.212 | 0.263 | 0.192 | 0.117 | 0.338
LCLC-103H | 0.506 | 0.504 | 0.467 | 0.498 | 0.356 | 0.357 | 0.33 | 0.391 | 0.656 | 0.482 | 0.667 | 0.661 | 0.547 | 0.734 | 0.67 | 0.744 | 0.708 | 0.66 | 0.393 | 0.271
NCI-H441 | 0.233 | 0.215 | 0.195 | 0.226 | 0.845 | 0.717 | 0.853 | 0.932 | 0.388 | 0.359 | 0.515 | 0.6 | 0.508 | 0.246 |  | 0.241 | 0.234 | 0.241 |  | 0.604
SK-LU-1 | 0.474 | 0.395 | 0.37 | 0.352 | 0.538 | 0.52 | 0.575 | 0.587 | 0.619 | 0.519 | 0.619 | 0.542 | 0.583 | 0.732 | 0.632 | 0.567 | 0.657 | 0.658 | 0.323 | 0.36
BEN | 0.468 | 0.472 | 0.435 | 0.47 | 0.251 | 0.282 | 0.263 | 0.247 | 0.523 | 0.532 | 0.589 | 0.576 | 0.61 | 0.775 | 0.727 | 0.767 | 0.764 | 0.702 | 0.493 | 0.275
LC-2-ad | 0.481 | 0.447 | 0.46 | 0.464 | 0.574 | 0.632 | 0.64 | 0.696 | 0.335 |  | 0.491 | 0.503 | 0.508 | 0.783 | 0.733 | 0.762 | 0.773 | 0.755 | 0.436 | 
COR-L23 | 0.336 | 0.336 | 0.283 | 0.272 | 0.53 | 0.484 | 0.5 | 0.491 | 0.716 | 0.523 | 0.78 | 0.692 | 0.822 | 0.523 | 0.343 | 0.473 | 0.475 | 0.307 | 0.216 | 0.368
NCI-H1650 | 0.375 | 0.273 | 0.378 | 0.277 |  | 0.478 | 0.435 | 0.39 | 0.597 | 0.351 | 0.579 | 0.548 | 0.442 | 0.411 | 0.385 | 0.435 | 0.47 | 0.5 | 0.31 | 
RERF-LC-KJ | 1.09 | 0.929 | 1.02 | 1.11 | 0.381 | 0.453 | 0.393 | 0.404 | 0.617 | 0.521 | 0.459 | 0.491 | 0.479 | 0.588 | 0.691 | 0.61 | 0.694 | 0.576 | 0.989 | 0.428
NCI-H1915 | 0.554 | 0.53 | 0.503 | 0.516 | 0.396 | 0.366 | 0.382 | 0.374 | 1.02 |  | 0.963 | 0.998 | 0.905 | 0.259 |  | 0.265 | 0.26 | 0.265 |  | 
NCI-H2009 | 0.228 | 0.193 | 0.24 | 0.173 | 0.467 | 0.493 | 0.362 | 0.436 | 0.798 | 0.664 | 0.852 | 0.718 | 0.761 | 0.357 | 0.356 | 0.354 | 0.382 | 0.412 | 0.209 | 0.468
NCI-H2126 | 0.338 | 0.333 | 0.336 | 0.349 | 0.557 | 0.571 | 0.543 | 0.567 | 0.53 | 0.44 | 0.516 | 0.521 | 0.514 | 0.652 | 0.572 | 0.547 | 0.62 | 0.566 | 0.365 | 0.515
LXF-289 | 0.594 | 0.542 | 0.537 | 0.581 | 0.517 | 0.507 | 0.549 | 0.547 | 0.788 | 0.766 | 0.755 | 0.794 | 0.727 | 0.431 | 0.351 | 0.388 | 0.385 | 0.361 | 0.572 | 0.463
HCC-44 | 0.985 | 0.94 | 0.899 | 0.918 | 0.193 | 0.203 | 0.218 | 0.221 | 0.412 | 0.37 | 0.604 | 0.573 | 0.694 | 0.951 | 0.797 | 0.914 | 0.981 | 0.987 | 0.999 | 0.13
PC-14 | 0.489 | 0.524 | 0.582 | 0.471 | 0.652 | 0.615 | 0.594 | 0.513 | 0.664 | 0.59 | 0.686 | 0.637 | 0.582 | 0.213 | 0.201 | 0.265 | 0.244 | 0.162 | 0.446 | 
HOP-62 | 0.453 | 0.516 | 0.438 | 0.425 | 0.665 | 0.615 | 0.654 | 0.718 | 0.788 |  | 0.612 | 0.804 | 1.09 | 0.225 |  | 0.202 | 0.241 | 0.246 |  | 
SK-MES-1 | 0.379 | 0.356 | 0.301 | 0.342 | 0.726 | 0.605 | 0.577 | 0.602 | 0.398 | 0.361 | 0.34 | 0.337 | 0.315 | 0.365 | 0.398 | 0.377 | 0.448 | 0.41 | 0.3 | 0.67
NCI-H1793 | 0.242 | 0.315 | 0.28 | 0.373 | 0.301 | 0.383 |  | 0.392 |  | 0.465 | 0.366 | 0.3 | 0.311 | 0.47 | 0.466 | 0.506 | 0.56 | 0.614 | 0.281 | 
NCI-H1666 | 0.644 | 0.667 | 0.583 | 0.636 | 0.614 | 0.584 | 0.562 | 0.627 | 0.533 | 0.442 | 0.501 | 0.545 | 0.575 | 0.755 | 0.742 | 0.712 | 0.768 | 0.865 | 0.611 | 0.504
NCI-H1355 | 0.411 | 0.391 | 0.389 | 0.414 | 0.471 | 0.447 | 0.446 | 0.433 | 0.423 | 0.385 | 0.412 | 0.445 | 0.475 | 0.391 | 0.326 | 0.355 | 0.369 | 0.328 | 0.357 | 0.425
HCC-827 | 0.57 | 0.508 | 0.473 | 0.386 | 0.407 | 0.396 | 0.432 | 0.329 | 1.15 | 1.11 | 1 | 0.875 | 1.12 | 0.332 | 0.291 | 0.319 | 0.399 | 0.317 | 0.498 | 0.347
HARA | 0.269 | 0.215 | 0.26 | 0.291 | 0.396 | 0.466 | 0.351 | 0.416 | 0.393 | 0.359 | 0.531 | 0.321 | 0.446 | 0.532 |  | 0.563 | 0.564 | 0.425 | 0.226 | 0.483
HCC-366 | 0.42 | 0.348 | 0.327 | 0.361 | 0.616 | 0.593 | 0.511 | 0.585 | 0.137 | 0.146 | 0.128 | 0.149 | 0.138 | 0.338 | 0.324 | 0.331 | 0.333 | 0.326 | 0.319 | 0.538
NCI-H322M | 0.488 | 0.434 | 0.456 | 0.465 | 0.798 | 0.752 | 0.783 | 0.824 | 0.519 | 0.514 | 0.533 | 0.529 | 0.572 | 0.659 | 0.692 | 0.698 | 0.679 | 0.724 | 0.488 | 0.739
